Where “and” joins values, the source holds several entries; their conditions need not be identical. Equal values may be shown once.
Test system: 743489-274-T-PDC complex spheroid growth
Experiment: Anticancer human tumor 743489-274-T-PDC patient-derived renal cell carcinoma cell line growth inhibition [AhR]
Settings: for viability, T/C: stronger effect = lower value
Summary of the method: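 Complex tumor spheroids co-cultured with HUVEC and human MSC stroma; AhR antagonists tested in combination with standard-of-care and investigational agents. Top concentration at or near clinical Cmax (else 10 microM), half-log dilutions; growth expressed as percent test/control.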

[1] = curve of first compound, second compound 0.1 µM
[2] = curve of first compound, second compound 0.316 µM
[3] = curve of first compound, second compound 1 µM
[4] = curve of first compound, second compound 3.16 µM
[5] = curve of first compound, second compound 10 µM
[6] = second compound 0.1 µM, first compound 0.00949 µM
[7] = second compound 0.1 µM, first compound 0.03 µM
[8] = second compound 0.1 µM, first compound 0.0949 µM
[9] = second compound 0.1 µM, first compound 0.3 µM
[10] = second compound 0.1 µM, first compound 0.949 µM
[11] = second compound 0.1 µM, first compound 3 µM
[12] = second compound 0.316 µM, first compound 0.00949 µM
[13] = second compound 0.316 µM, first compound 0.03 µM
[14] = second compound 0.316 µM, first compound 0.0949 µM
[15] = second compound 0.316 µM, first compound 0.3 µM
[16] = second compound 0.316 µM, first compound 0.949 µM
[17] = second compound 0.316 µM, first compound 3 µM
[18] = second compound 1 µM, first compound 0.00949 µM
[19] = second compound 1 µM, first compound 0.03 µM
[20] = second compound 1 µM, first compound 0.0949 µM
[21] = second compound 1 µM, first compound 0.3 µM
[22] = second compound 1 µM, first compound 0.949 µM
[23] = second compound 1 µM, first compound 3 µM
[24] = second compound 3.16 µM, first compound 0.00949 µM
[25] = second compound 3.16 µM, first compound 0.03 µM
[26] = second compound 3.16 µM, first compound 0.0949 µM
[27] = second compound 3.16 µM, first compound 0.3 µM
[28] = second compound 3.16 µM, first compound 0.949 µM
[29] = second compound 3.16 µM, first compound 3 µM
[30] = second compound 10 µM, first compound 0.00949 µM
[31] = second compound 10 µM, first compound 0.03 µM
[32] = second compound 10 µM, first compound 0.0949 µM
[33] = second compound 10 µM, first compound 0.3 µM
[34] = second compound 10 µM, first compound 0.949 µM
[35] = second compound 10 µM, first compound 3 µM
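Note: spheroids exposed to agents for 7 days before readout.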
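Throughout, for viability, T/C: 100% = DMSO vehicle control wells.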

For `O=C(C=Cn1cnc(-c2cc(C(F)(F)F)cc(C(F)(F)F)c2)n1)NNc1cnccn1` + CC(CO)NC(=O)c1cc(-c2ccc(Cl)cc2)nn(-c2cnn(C)c2)c1=O, the IC50 [1] was > 3000 nM, the IC50 [2] was > 3000 nM and the IC50 [3] was > 3000 nM. For the same compound, the IC50 [4] was > 3000 nM, the IC50 [5] was > 3000 nM and the viability, T/C [6] was 108%. The viability, T/C [7] was 102%, the viability, T/C [8] was 111% and the viability, T/C [9] was 122%. It also gave a viability, T/C [10] of 114%, a viability, T/C [11] of 98.3% and a viability, T/C [12] of 86.7%. The viability, T/C [13] was 103%, the viability, T/C [14] was 117% and the viability, T/C [15] was 115%. The viability, T/C [16] was 101%, the viability, T/C [17] was 90.3% and the viability, T/C [18] was 94%. The viability, T/C [19] was 109%, the viability, T/C [20] was 101% and the viability, T/C [21] was 123%. The viability, T/C [22] was 116%, the viability, T/C [23] was 94.1% and the viability, T/C [24] was 96.7%. For the same compound, the viability, T/C [25] was 101%, the viability, T/C [26] was 112% and the viability, T/C [27] was 129%. For the same compound, the viability, T/C [28] was 105%, the viability, T/C [29] was 86.1% and the viability, T/C [30] was 96.3%. The viability, T/C [31] was 110%, the viability, T/C [32] was 104% and the viability, T/C [33] was 116%. For the same compound, the viability, T/C [34] was 94.9% and the viability, T/C [35] was 91.3%.

Compound `CC(C)CC(NC(=O)C(Cc1ccccc1)NC(=O)c1cnccn1)B(O)O` (configuration not stated) + Cc1cncc(-c2nc(NCCc3c[nH]c4ccccc34)c3ncn(C(C)C)c3n2)c1 has an IC50 [1] of 49.3 nM, an IC50 [2] of 27.2 nM and an IC50 [3] of 21 nM. The IC50 [4] was 20.9 nM, the IC50 [5] was 13.9 nM and the viability, T/C (second compound 0.1 µM, first compound 0.000949 µM) was 94.6%. For the same compound, the viability, T/C (second compound 0.1 µM, first compound 0.003 µM) was 96.3%, the viability, T/C [6] was 106% and the viability, T/C [7] was 75.8%. It also gave a viability, T/C [8] of 16.6%, a viability, T/C [9] of 11.4% and a viability, T/C (second compound 0.316 µM, first compound 0.000949 µM) of 98.8%. It also gave a viability, T/C (second compound 0.316 µM, first compound 0.003 µM) of 96.9%, a viability, T/C [12] of 108% and a viability, T/C [13] of 45.2%. The viability, T/C [14] was 18.4%, the viability, T/C [15] was 10.7% and the viability, T/C (second compound 1 µM, first compound 0.000949 µM) was 99.8%. It also gave a viability, T/C (second compound 1 µM, first compound 0.003 µM) of 103%, a viability, T/C [18] of 93% and a viability, T/C [19] of 30.3%. It also gave a viability, T/C [20] of 17.6%, a viability, T/C [21] of 8.63% and a viability, T/C (second compound 3.16 µM, first compound 0.000949 µM) of 107%. The viability, T/C (second compound 3.16 µM, first compound 0.003 µM) was 107%, the viability, T/C [24] was 102% and the viability, T/C [25] was 25.9%. It also gave a viability, T/C [26] of 13.1%, a viability, T/C [27] of 4.96% and a viability, T/C (second compound 10 µM, first compound 0.000949 µM) of 124%. The viability, T/C (second compound 10 µM, first compound 0.003 µM) was 113%, the viability, T/C [30] was 73.2% and the viability, T/C [31] was 2.6%. For the same compound, the viability, T/C [32] was 1.14% and the viability, T/C [33] was 0.75%.

In the case of `COc1cccc2c1C(=O)c1c(O)c3c(c(O)c1C2=O)CC(O)(C(=O)CO)CC3OC1CC(N)C(O)C(C)O1` (configuration not stated) + Cc1cncc(-c2nc(NCCc3c[nH]c4ccccc34)c3ncn(C(C)C)c3n2)c1, the IC50 [1] is reported as > 10000 nM, the IC50 [2] is reported as 5540 nM and the IC50 [3] is reported as 2470 nM. For the same compound, the IC50 [4] was 1350 nM, the IC50 [5] was 825 nM and the viability, T/C (second compound 0.1 µM, first compound 0.0316 µM) was 92.1%. For the same compound, the viability, T/C (second compound 0.1 µM, first compound 0.1 µM) was 92.6%, the viability, T/C (second compound 0.1 µM, first compound 0.316 µM) was 90.2% and the viability, T/C (second compound 0.1 µM, first compound 1 µM) was 80.4%. It also gave a viability, T/C (second compound 0.1 µM, first compound 3.16 µM) of 96.5%, a viability, T/C (second compound 0.1 µM, first compound 10 µM) of 50.4% and a viability, T/C (second compound 0.316 µM, first compound 0.0316 µM) of 89.7%. The viability, T/C (second compound 0.316 µM, first compound 0.1 µM) was 92.5%, the viability, T/C (second compound 0.316 µM, first compound 0.316 µM) was 88.3% and the viability, T/C (second compound 0.316 µM, first compound 1 µM) was 84.8%. It also gave a viability, T/C (second compound 0.316 µM, first compound 3.16 µM) of 70.6%, a viability, T/C (second compound 0.316 µM, first compound 10 µM) of 28.4% and a viability, T/C (second compound 1 µM, first compound 0.0316 µM) of 89.6%. The viability, T/C (second compound 1 µM, first compound 0.1 µM) was 97%, the viability, T/C (second compound 1 µM, first compound 0.316 µM) was 92.2% and the viability, T/C (second compound 1 µM, first compound 1 µM) was 89.6%. The viability, T/C (second compound 1 µM, first compound 3.16 µM) was 39.2%, the viability, T/C (second compound 1 µM, first compound 10 µM) was 0.75% and the viability, T/C (second compound 3.16 µM, first compound 0.0316 µM) was 91.3%. For the same compound, the viability, T/C (second compound 3.16 µM, first compound 0.1 µM) was 91.6%, the viability, T/C (second compound 3.16 µM, first compound 0.316 µM) was 93.6% and the viability, T/C (second compound 3.16 µM, first compound 1 µM) was 67.6%. It also gave a viability, T/C (second compound 3.16 µM, first compound 3.16 µM) of 0.25%, a viability, T/C (second compound 3.16 µM, first compound 10 µM) of 0.22% and a viability, T/C (second compound 10 µM, first compound 0.0316 µM) of 111%. It also gave a viability, T/C (second compound 10 µM, first compound 0.1 µM) of 96%, a viability, T/C (second compound 10 µM, first compound 0.316 µM) of 93.6% and a viability, T/C (second compound 10 µM, first compound 1 µM) of 42%. For the same compound, the viability, T/C (second compound 10 µM, first compound 3.16 µM) was 0.4% and the viability, T/C (second compound 10 µM, first compound 10 µM) was 0.25%.

`CCN(c1cc(-c2ccc(CN3CCOCC3)cc2)cc(C(=O)NCc2c(C)cc(C)[nH]c2=O)c1C)C1CCOCC1` + CC(CO)NC(=O)c1cc(-c2ccc(Cl)cc2)nn(-c2cnn(C)c2)c1=O was tested, and the IC50 [1] was > 3000 nM, the IC50 [2] was > 3000 nM and the IC50 [3] was > 3000 nM. For the same compound, the IC50 [4] was > 3000 nM, the IC50 [5] was > 3000 nM and the viability, T/C [6] was 103%. It also gave a viability, T/C [7] of 103%, a viability, T/C [8] of 99.6% and a viability, T/C [9] of 93.5%. The viability, T/C [10] was 93.8%, the viability, T/C [11] was 112% and the viability, T/C [12] was 97.6%. The viability, T/C [13] was 96.5%, the viability, T/C [14] was 103% and the viability, T/C [15] was 102%. For the same compound, the viability, T/C [16] was 90.5%, the viability, T/C [17] was 92.6% and the viability, T/C [18] was 104%. It also gave a viability, T/C [19] of 102%, a viability, T/C [20] of 107% and a viability, T/C [21] of 92.4%. For the same compound, the viability, T/C [22] was 94%, the viability, T/C [23] was 106% and the viability, T/C [24] was 84.4%. For the same compound, the viability, T/C [25] was 92.3%, the viability, T/C [26] was 103% and the viability, T/C [27] was 82.6%. It also gave a viability, T/C [28] of 92.7%, a viability, T/C [29] of 98.8% and a viability, T/C [30] of 105%. For the same compound, the viability, T/C [31] was 106%, the viability, T/C [32] was 91.7% and the viability, T/C [33] was 104%. For the same compound, the viability, T/C [34] was 101% and the viability, T/C [35] was 91.1%.

With `CC1COCCN1c1cc(C2(S(C)(=N)=O)CC2)nc(-c2ccnc3[nH]ccc23)n1` (configuration not stated) the viability, T/C (compound 0.0316 µM) was 101% (2×) and 98.1%, the viability, T/C (compound 0.1 µM) was 109% and 103% and 97.3% and the viability, T/C (compound 0.316 µM) was 101% and 110% and 96.7%. The viability, T/C (compound 1 µM) was 94.8% and 103% and 108%, the viability, T/C (compound 3.16 µM) was 98.2% and 102% and 104% and the viability, T/C (compound 10 µM) was 99.1% and 92% and 114%. The IC50 (curve of compound) was > 10000 nM.
